The source of these data is PMC10934098, “Platinum(0)-η^2-1,2-(E)ditosylethene Complexes Bearing Phosphine, Isocyanide and N-Heterocyclic Carbene Ligands: Synthesis and Cytotoxicity towards Ovarian and Breast Cancer Cells” (Molecules, 2024).

Some results are limits rather than exact numbers.

Data set [1] deals with MDA-MB-231 (triple-negative breast cancer cells). The data set can be described thus: Antiproliferative activity (CellTiter-Glo cytotoxicity assay) on MDA-MB-231. The following applies: 96 h of incubation; MDA-MB-231 cells; stock solutions in DMSO (cisplatin in H2O/NaCl). The class given is cell-based, human. How it is done:
(§1) With the aim of exploring the potential anticancer effects of platinum(0)-η^2-1,2-(E)ditosylethene complexes, we exposed a set of three distinct human tumor cell lines (ovarian cancer A2780 and its cisplatin-resistant clone A2780cis, and triple-negative breast cancer MDA-MB-231) to the synthesized compounds and cisplatin (positive control) for a duration of 96 h.
(§2) Two types of ovarian cancer cell lines (A2780 and A2780cis), one breast cancer cell line (MDA-MB-231) and a normal cell line (MRC-5) were cultured following the supplier’s guidelines (Sigma-Aldrich, St. Louis, MO, USA) and maintained at 37 °C in a humidified atmosphere containing 5% CO2. In 96-well plates, 1∙10^3 cancer cells and 8∙10^3 MRC-5 cells were seeded and treated after 24 h with six different concentrations of Pt(0) complexes (0.001, 0.01, 0.1, 1, 10, 100 µM). Stock solutions (10 mM) of all platinum complexes were prepared using DMSO as a solvent. After 96 h of treatment, cell viability was assessed using a CellTiter-Glo assay (Promega, Madison, WI, USA) with Tecan M1000 or SynergyH1 microplate readers (Mennedorf, Switzerland). IC50 values were determined from logistical dose–response curves using GraphPad Prism 8 software. Triplicate measurements were taken to calculate averages, and standard deviations were represented by error bars.

In data set [2] the test system is A2780 (cisplatin-sensitive ovarian cancer cells). The data set can be described thus: Antiproliferative activity (CellTiter-Glo cytotoxicity assay) on A2780. Format: cell-based, human. The following applies: 96 h of incubation, stock solutions in DMSO (cisplatin in H2O/NaCl). How it is done: as §1, §2
The test system of data set [3] is A2780cis (cisplatin-resistant ovarian cancer cells). The data set can be described thus: Antiproliferative activity (CellTiter-Glo cytotoxicity assay) on A2780cis. The following applies: 96 h of incubation, stock solutions in DMSO (cisplatin in H2O/NaCl). The class given is cell-based, human. As to the method:
as §1, §2

The subject of data set [4] is MRC-5 (normal lung fibroblasts). Nature of the data set: Antiproliferative activity (CellTiter-Glo cytotoxicity assay) on MRC-5 normal cells. The class given is cell-based, human. As to conditions: 96 h of incubation, stock solutions in DMSO (cisplatin in H2O/NaCl). As to the method: as §1, §2
The nature of data set [5]: Solubility in DMSO and DMSO/H2O solutions. Format: physicochemical. The source says: Therefore, these three platinum derivatives were consequently excluded from biological analyses.

Turning to “[(P(2-furyl)3)2Pt(η^2-(E)-1,2-ditosylethene)] [Compound 2c]”, the half-maximal inhibitory concentration (IC50) is over 100 µM in data set [1], 17.2 ± 0.8 µM in data set [2], over 100 µM in data set [3] and over 100 µM in data set [4].

For “[(P(p-F-Ph)3)2Pt(η^2-(E)-1,2-ditosylethene)] [Compound 2b]”, the IC50 in data set [1] is 36 ± 6 µM; in data set [2], over 100 µM; in data set [3], over 100 µM; in data set [4], over 100 µM.

As to “[(TosMIC)2Pt(η^2-(E)-1,2-ditosylethene)] [Compound 3b]”, the IC50 in data set [1] is 5.52 ± 0.03 µM; in data set [2] it was 5.4 ± 0.7 µM; in data set [3], 11 ± 6 µM; in data set [4] it was 22 ± 6 µM.

“[(PPh3)(DIC)Pt(η^2-(E)-1,2-ditosylethene)] [Compound 4a]”: the IC50 in data set [1] is 1.8 ± 0.6 µM; in data set [2], 35 ± 3 µM; in data set [3] it was over 100 µM; in data set [4], 59 ± 8 µM.

For “[(PPh3)2Pt(η^2-(E)-1,2-ditosylethene)] [Compound 2a]”, the IC50 in data set [1] was 2.6 ± 0.4 µM; in data set [2], 5.5 ± 0.6 µM; in data set [3], over 100 µM; in data set [4] it was over 100 µM.

Regarding “[(P(p-F-Ph)3)(DIC)Pt(η^2-(E)-1,2-ditosylethene)] [Compound 4b]”, the IC50 in data set [1] was 30 ± 13 µM; in data set [2], 85 ± 23 µM; in data set [3], over 100 µM; in data set [4], over 100 µM.

Take “[(TolCH2ImCH2Tol)2Pt(η^2-(E)-1,2-ditosylethene)] [Compound 6a]”: the IC50 in data set [1] was 36 ± 11 µM; in data set [2], 1.6 ± 0.1 µM; in data set [3], 10 ± 3 µM; in data set [4] it was over 100 µM.

For `N.N.[Cl][Pt][Cl]` [Cisplatin, reference compound], the IC50 in data set [1] was 6.4 ± 0.5 µM; in data set [2], 0.19 ± 0.08 µM; in data set [3], 5.4 ± 0.1 µM; in data set [4], 2.9 ± 0.1 µM.

Turning to “[(PPh3)(TIC)Pt(η^2-(E)-1,2-ditosylethene)] [Compound 4e]”, in data set [5], the Solubility result is “low solubility”.

For the compound “[(CyIC)2Pt(η^2-(E)-1,2-ditosylethene)] [Compound 3d]”, the IC50 worked out at 1.2 ± 0.3 µM in data set [1], 1.18 ± 0.09 µM in data set [2] and 1.4 ± 0.2 µM in data set [3].

In the case of “[(CH3ImCH2Ph)2Pt(η^2-(E)-1,2-ditosylethene)] [Compound 6b]”, the IC50 was 5.4 ± 0.9 µM in data set [1], 1.9 ± 0.3 µM in data set [2], 12.91 ± 0.06 µM in data set [3] and 61 ± 13 µM in data set [4].

Turning to “[(P(p-F-Ph)3)(TIC)Pt(η^2-(E)-1,2-ditosylethene)] [Compound 4f]”, the IC50 in data set [1] is 21 ± 2 µM; in data set [2], over 100 µM; in data set [3], over 100 µM; in data set [4], over 100 µM.

With “[(P(p-F-Ph)3)(TosMIC)Pt(η^2-(E)-1,2-ditosylethene)] [Compound 4d]”, the IC50 is 0.4 ± 0.1 µM in data set [1], over 100 µM in data set [2], over 100 µM in data set [3] and 14 ± 1 µM in data set [4].

In the case of “[(DIC)2Pt(η^2-(E)-1,2-ditosylethene)] [Compound 3a]”, in data set [5], the Solubility result is reported as “low solubility”.

For “[(TIC)2Pt(η^2-(E)-1,2-ditosylethene)] [Compound 3c]”, the IC50 in data set [1] came out at 3.4 ± 0.4 µM; in data set [2] it was 2.6 ± 0.3 µM; in data set [3], 3.1 ± 0.9 µM; in data set [4], 3.5 ± 0.1 µM.

On to “[(PPh3)(CyIC)Pt(η^2-(E)-1,2-ditosylethene)] [Compound 4g]”, for which the Solubility result in data set [5] is “low solubility”.

Turning to “[(PPh3)(TosMIC)Pt(η^2-(E)-1,2-ditosylethene)] [Compound 4c]”, the IC50 in data set [1] was 1 ± 0.8 µM; in data set [2] it was 55 ± 17 µM; in data set [3], over 100 µM; in data set [4], 15 ± 3 µM.

As to “[(P(p-F-Ph)3)(CyIC)Pt(η^2-(E)-1,2-ditosylethene)] [Compound 4h]”, the IC50 was 37 ± 13 µM in data set [1], 41 ± 10 µM in data set [2], over 100 µM in data set [3] and over 100 µM in data set [4].
